Patent publication US20110136876A1, “Altering Pharmacokinetics of Pirfenidone Therapy” (INTERMUNE, INC., priority 2007, published 2011)
Where two headings read alike, the source gives them in different places.

Assays:
[1] = Single dose study: pharmacokinetics of pirfenidone, fasted versus fed; assay type: in vivo; conditions: human, plasma, 801 mg; for half-life: oral, read-out: mean absorption half life (t1/2, abs) (converted)
Protocol: (§1) A study was designed to evaluate the effect of food, antacids, and food taken with antacids on adverse events associated with pirfenidone use. The trial was conducted as a randomized, open-label, four-treatment crossover, with a single dose for each treatment period and a 2-day washout period between study treatments. 16 healthy adults between the ages of 50 and 79 years having body mass indices between 18 and 30 (inclusive) were enrolled and completed all 4 treatment arms. The treatment arms were as follows:
(§2) A) pirfenidone alone (Fasted);
(§3) B) pirfenidone within 1 minute following a dose of antacid (20 mL Mylanta® Maximum Strength Liquid) (Fasted+Antacid);
(§4) C) pirfenidone 5 minutes after completing a standard meal (Fed); and
(§5) D) pirfenidone 5 minutes after completing a standard meal, then within 1 minute, followed by a dose of antacid (Fed+Antacid).
(§6) All subjects were admitted to the clinic for clinical evaluation the day prior to receiving the first dose of the study medication and remained confined for 13 days. Following an overnight fast of at least 10 hours (h), subjects were randomized to one of the above-described 4 treatment sequences. Each dose of pirfenidone (3×267 mg capsules) was administered orally with 240 mL room temperature water on days 1, 4, 7, and 10 in the morning, following an overnight fast of at least 10 hours. The washout period between treatments was 2 days. A standard meal consisted of 2 fried eggs, 2 strips of bacon, 2 slices of toast, 2 pats of butter, hash brown potatoes (4 oz), and whole milk (8 oz).
Of 7 subjects who reported nausea, 5 of 16 (31%) were fasted compared to only 2 of 16 (13%) fed subjects. Of 5 subjects reporting dizziness, 4 of 16 (25%) were fasted, while only 1 of 16 (6%) was fed. Of 3 subjects reporting somnolence, 2 of 16 (13%) were fasted and 1 of 16 (6%) were fed. Of 3 subjects reporting headaches, 2 of 16 (13%) were fasted and 1 of 16 (6%) were fed.

[2] = Multiple dose study: adverse events on multiple ascending daily doses taken with food; assay type: in vivo, human
Protocol: A second study was designed to examine incidences of adverse events on multiple ascending daily doses of pirfenidone. The trial was conducted as an open-label, escalating-dose study with no washout period between dose escalations. 25 healthy adults between the ages of 45 and 79 (inclusive) having body mass indices between 18 and 30 (inclusive) were enrolled. 22 adults completed the treatment. Each volunteer received from 801 mg/day to 4005 mg/day of pirfenidone divided into three equal doses as follows:
Days 1-2: 1 capsule three times a day (TID) (801 mg total daily dose (TDD))
Day 3: 1 capsule in the morning (0800) (267 mg TDD)
Days 4-5: 2 capsules TID (1602 mg TDD)
Day 6: 2 capsules in the morning (534 mg TDD)
Days 7-8: 3 capsules TID (2403 mg TDD)
Day 9: 3 capsules in the morning (801 mg TDD)
Day 12: 4 capsules in the morning (1068 mg TDD)
Day 15: 5 capsules in the morning (1335 mg TDD)
All subjects were admitted to the clinic for clinical evaluation the day before the first dose of study medication and remained confined for 17 days. Each subject received all dose levels of the study drug unless adverse events or the clinical judgment of the trial physician precluded the continuation of treatment. All doses were taken with 240 mL room temperature water and with food (excluding grapefruit juice). TID doses times were ˜0800, ˜1200, and ˜1800.

[3] = Single dose study: adverse events with food, antacid, or food plus antacid; assay type: in vivo, human; conditions: for dizziness incidence / nausea incidence / somnolence incidence / headache incidence: of 16 subjects
Protocol: as §1, §2, §3, §4, §5, §6
On each study day, adverse events were reviewed with the patients as follows. Before administration of the first dose of the study drug, study site personnel noted the occurrence and nature of each subject's medical condition(s). During the trial, site personnel again noted any change in the condition(s) or occurrence and nature of any adverse events. The severity of adverse events were graded based on the Modified Common Toxicity Criteria and the relationship of the study drug to the adverse event determined.

[4] = 801 to 4005 mg/day TID with food, of 25 subjects

Structure (SMILES): Cc1ccc(=O)n(-c2ccccc2)c1 [pirfenidone, 5-methyl-1-phenyl-2-(1H)-pyridone]
- half-life ([1]; with food (fed)): ~1.78 h
- half-life ([1]; without food (fasted)): ~0.572 h
- Cmax ([1]; po, fasted (without food), single oral dose 3x267 mg capsules, healthy adults): 15700 ng/mL
- AUC ([1]; po, fasted, single oral dose 3x267 mg capsules): 72700 ng·h/mL
- AUC ([1]; po, fed, single oral dose 3x267 mg capsules): 64600 ng·h/mL
- subjects with at least one adverse event ([2]; 801 to 4005 mg/day TID with food, 25 subjects): 92%
- headache incidence [2, 4]: 28%
- nausea incidence [2, 4]: 36%
- somnolence incidence [2, 4]: 32%
- subjects with adverse events whose adverse events were mild ([2]; of the 23 subjects with at least one adverse event): 96%
- dizziness incidence ([3]; all treatment arms): 38%
- nausea incidence ([3]; all treatment arms): 44%
- somnolence incidence ([3]; all treatment arms): 25%
- dizziness incidence ([3]; fasted): 25%
- headache incidence ([3]; fasted): 13%
- nausea incidence ([3]; fasted): 31%
- somnolence incidence ([3]; fasted): 13%
- dizziness incidence ([3]; fed): 6%
- headache incidence ([3]; fed): 6%
- nausea incidence ([3]; fed): 13%
- somnolence incidence ([3]; fed): 6%
- subjects with at least 1 adverse event ([3]; in total, all treatment arms, 16 subjects): 75%
- subjects with adverse events whose adverse events were mild ([3]; of the 12 subjects with at least 1 adverse event): 75%
- subjects who experienced an adverse event ([3]; with food (Fed), 16 subjects): 31.3%
- subjects who experienced an adverse event ([3]; with food and antacid (Fed+Antacid), 16 subjects): 25%
- subjects who experienced an adverse event ([3]; within 1 minute following a dose of antacid (Fasted+Antacid), 16 subjects): 56.3%
- subjects who experienced an adverse event ([3]; without food (Fasted), 16 subjects): 56.3%
